Several values for one entry are separate records, joined by “and”; a condition that tells them apart may be missing. Equal entries are not always repeated. Where two headings read alike, the source gives them in different places.
Tests used:
S. mansoni adult worms [1] = assay: GSH/GSSG ratio in ex vivo adult worms; format: cell-based; conditions: for Decrease (%) in GSH/GSSG ratio: adult worms, 3 h exposure to compounds at 50 μM
Procedure: We assessed GSH/GSSG levels experimentally by treating S. mansoni adult worms with 50 µM of compounds, or respective controls 5 µM Auranofin, 50 µM PZQ or 50 µM MZM and 0.01% DMSO for 3 h. Worm homogenate was prepared by washing three times with PBS to remove residual compounds and ten volumes of ice cold 5% sulfosalicylic acid was added. Worms were manually homogenized on ice using VWR Pellet Mixer Adaptor. The worm suspension was centrifuged at 14000 × g, 4 °C for 10 min and the acid supernatants transferred. An equal volume of ice-cold neutralization buffer (500 mM HEPES, pH 8.0) was added to the acid supernatants.
GSH/GSSG assay was performed by diluting the acid supernatant (5-fold) with ice-cold dilution buffer (250 mM HEPES, pH 7.5). Using white opaque luminescence plate on ice, 25 µl of the diluted worm acid supernatant was added each well in triplicates. Total glutathione lysis reagent and GSSG lysis reagent, which contains alkylating agent N-ethylmaleimide (25 mM) were prepared following manufactures protocol and added to respective wells along with blank for background. Total glutathione lysis reagent or oxidized glutathione lysis reagent (25 µl) was added to respective wells containing worm acid supernatants and the plate was shaken for 5 min. Luciferin generation reagent (LGR) (50 µl) was added to all wells, briefly shaken and incubated at room temperature for 30 min. Luciferin detection reagent (LDR) (100 µl) was added to all wells, briefly shaken and incubated for 15 min at room temperature and the luminescence measured using microplate imager (BioTek Cytation3). GSH/GSSH ratio for DMSO control and compounds were calculated using (Net DMSO total glutathione RFU) – (Net DMSO GSSG RFU)/ (Net DMSO GSSG RFU)/2 and (Net inhibitor total glutathione RFU) – (Net inhibitor GSSG RFU)/ (Net inhibitor GSSG RFU)/2 respectively.

Human GR = biological target: T1, Human GR (Homo sapiens, UniProt P00390); assay: Human GR enzyme inhibition (GSSG reduction, NADPH oxidation); format: biochemical; conditions: for inhibition at 5 µM: compound 5 µM
T1 construct: made in house
T1 sequence (P00390 44-522): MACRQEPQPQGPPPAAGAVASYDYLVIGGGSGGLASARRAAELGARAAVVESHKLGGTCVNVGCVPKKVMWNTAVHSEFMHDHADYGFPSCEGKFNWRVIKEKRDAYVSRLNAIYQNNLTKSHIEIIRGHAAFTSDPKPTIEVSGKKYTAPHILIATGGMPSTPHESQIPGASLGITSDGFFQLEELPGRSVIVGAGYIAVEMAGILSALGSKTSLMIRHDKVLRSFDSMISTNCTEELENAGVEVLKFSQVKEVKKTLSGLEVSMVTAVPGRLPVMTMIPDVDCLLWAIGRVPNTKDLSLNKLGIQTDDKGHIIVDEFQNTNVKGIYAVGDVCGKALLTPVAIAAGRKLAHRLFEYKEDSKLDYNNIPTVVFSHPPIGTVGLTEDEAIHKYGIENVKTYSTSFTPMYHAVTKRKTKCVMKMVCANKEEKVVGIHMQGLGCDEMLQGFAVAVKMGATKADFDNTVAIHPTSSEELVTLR

S. mansoni adult worms [2] = assay: Schistosomicidal activity ex vivo, adult worms (Cell Titer Glo), alone or with channel blockers; format: cell-based; conditions: for LD50 ex vivo S. mansoni adult: 24 h exposure
Procedure: Three-week old, female Swiss-Webster mice obtained from the Charles River were housed in the Comparative Research Center of Rush University Medical Center. Mice were infected by percutaneous tail exposure to about 200 S. mansoni or 50 S. japonicum cercaria for adult worms and about 1000 cercaria for juvenile S. mansoni worms through natural transdermal penetration of the cercariae for 1 h[81].
DMSO formulated compounds were diluted with phenol red free M199 medium or RPMI medium for NTS or juvenile and adult worms, respectively, at <1% DMSO final concentrations. NTS, juvenile and adult worms from overnight cultures were tested against compounds in triplicate. Controls were treated with DMSO alone or 5 µM AF as a positive control in appropriate medium. […] Schistosome viabilities in the presence of the compounds were assessed using this formula: % Viability = Averages of Test / Averages of DMSO Control x 100.

[3] = adult worms ex vivo, 1 hr, relative to 0hr
[4] = adult worms ex vivo, 1 hr, relative to 0hr, values given as fraction
[5] = adult worms ex vivo, 3 hr, relative to 0hr, values given as fraction
[6] = hGR, 15 minutes pre-incubation, compound 15 µM, read-out: % inhibition
[7] = hGR, 15 minutes pre-incubation, compound 30 µM, read-out: % inhibition
[8] = hGR, 15 minutes pre-incubation, compound 66.7 µM, read-out: % inhibition
[9] = hGR, 6 hours pre-incubation, compound 15 µM, read-out: % inhibition
[10] = hGR, 6 hours pre-incubation, compound 30 µM, read-out: % inhibition
[11] = hGR, 6 hours pre-incubation, compound 66.7 µM, read-out: % inhibition
[12] = Schistosoma mansoni, S. mansoni adult worms, Conc. 10 µM, read-out: % viability

## C[C@@H]1[C@H]2C[C@@H](C[C@H]1NCc1nc3ccccc3n1C1CCCCCC1)C2(C)C [Compound 8]
S. mansoni adult worms [1]; 1 hr, third data set
  Reduction (%) in GSH/GSSG ratio: 13.1896%
S. mansoni adult worms [1]; 1 hr, third data set (r147-159), 0hr 72.45
  Ratio GSH/GSSG: 62.89
S. mansoni adult worms [1]; 1 hr, third data set (r147-159), 0hr = 100
  % Ratio GSH/GSSG: 86.8104%
S. mansoni adult worms [1]; 1 hr, third data set, (values given as fraction)
  Reduction (%) in GSH/GSSG ratio: 0.13%
S. mansoni adult worms [1]; 3 hr, third data set
  Reduction (%) in GSH/GSSG ratio: 20.8885%
S. mansoni adult worms [1]; 3 hr, third data set (r147-159), 0hr 72.45
  Ratio GSH/GSSG: 57.32
S. mansoni adult worms [1]; 3 hr, third data set (r147-159), 0hr = 100
  % Ratio GSH/GSSG: 79.1115%
S. mansoni adult worms [1]; 3 hr, third data set, (values given as fraction)
  Reduction (%) in GSH/GSSG ratio: 0.21%
S. mansoni adult worms [1]; adult worms ex vivo, 1 hr
  % Ratio GSH/GSSG: 52.2584%
S. mansoni adult worms [1]; [3]
  Reduction (%) in GSH/GSSG ratio: 14.1592%
S. mansoni adult worms [1]; [4]
  Reduction (%) in GSH/GSSG ratio: 0.1416%
S. mansoni adult worms [1]; adult worms ex vivo, 3 hr
  % Ratio GSH/GSSG: 52.8952%
S. mansoni adult worms [1]; [5]
  Reduction (%) in GSH/GSSG ratio: 0.2338%
S. mansoni adult worms [1]
  Decrease (%) in GSH/GSSG ratio: 20%
Human GR; 66.7 µM
  Human GR (inhibition at 66.7 µM): n.i.
Human GR; hGR, 15 minutes pre-incubation
  inhibition at 5 µM: -0.362%
Human GR; [6]
  inhibition at 15 µM: -0.934%
Human GR; [7]
  inhibition at 30 µM: -0.111%
Human GR; [8]
  inhibition at 66.7 µM: -0.91%
Human GR; hGR, 6 hours pre-incubation
  inhibition at 5 µM: -1.4%
Human GR; [9]
  inhibition at 15 µM: -4.52%
Human GR; [10]
  inhibition at 30 µM: -1.03%
Human GR; [11]
  inhibition at 66.7 µM: 9.42%
S. mansoni adult worms [2]; compound alone
  LD50 ex vivo S. mansoni adult: 22.3 ± 0.2 µM and 22.3 ± 0.20 µM
S. mansoni adult worms [2]; Schistosoma mansoni, 10 µM, compound alone, read-out: % viability, adult worms
  viability at 10 µM: 85.4%
S. mansoni adult worms [2]; Schistosoma mansoni, 30 µM, compound alone, read-out: % viability, adult worms
  viability at 30 µM: 30.6%
S. mansoni adult worms [2]; Schistosoma mansoni, 50 µM, compound alone, read-out: % viability, adult worms
  viability at 50 µM: 14%
S. mansoni adult worms [2]; Schistosoma mansoni, 100 µM, compound alone, read-out: % viability, adult worms
  viability at 100 µM: 6.59%
S. mansoni adult worms [2]; [12]
  viability at 10 µM: 85.4%
S. mansoni adult worms [2]; Schistosoma mansoni, S. mansoni adult worms, Conc. 30 µM, read-out: % viability
  viability at 30 µM: 30.6%
S. mansoni adult worms [2]; Schistosoma mansoni, S. mansoni adult worms, Conc. 50 µM, read-out: % viability
  viability at 50 µM: 14%
S. mansoni adult worms [2]; Schistosoma mansoni, S. mansoni adult worms, Conc. 100 µM, read-out: % viability
  viability at 100 µM: 6.59%

## C[C@@H]1[C@H]2C[C@@H](C[C@H]1NCc1cc(-c3ccccc3)[nH]n1)C2(C)C [Compound 11]
S. mansoni adult worms [1]; adult worms ex vivo, 1 hr
  % Ratio GSH/GSSG: 59.9789%
S. mansoni adult worms [1]; [3]
  Reduction (%) in GSH/GSSG ratio: 1.477%
S. mansoni adult worms [1]; [4]
  Reduction (%) in GSH/GSSG ratio: 0.01477%
S. mansoni adult worms [1]; adult worms ex vivo, 3 hr
  % Ratio GSH/GSSG: 59.8685%
S. mansoni adult worms [1]; adult worms ex vivo, 3 hr, relative to 0hr
  Reduction (%) in GSH/GSSG ratio: 1.659%
S. mansoni adult worms [1]; [5]
  Reduction (%) in GSH/GSSG ratio: 0.01659%
Human GR; 66.7 µM
  Human GR (inhibition at 66.7 µM): n.i.
Human GR; 15 minutes pre-incubation, 15 µM, read-out: hGR % inhibition
  inhibition at 15 µM: -0.832%
Human GR; 15 minutes pre-incubation, 30 µM, read-out: hGR % inhibition
  inhibition at 30 µM: -1.45%
Human GR; 15 minutes pre-incubation, 66.7 µM, read-out: hGR % inhibition
  inhibition at 66.7 µM: -1.01%
Human GR; 6 hours pre-incubation, 15 µM, read-out: hGR % inhibition
  inhibition at 15 µM: -0.778%
Human GR; 6 hours pre-incubation, 30 µM, read-out: hGR % inhibition
  inhibition at 30 µM: -1.99%
Human GR; 6 hours pre-incubation, 66.7 µM, read-out: hGR % inhibition
  inhibition at 66.7 µM: -2.81%
S. mansoni adult worms [2]; Schistosoma mansoni, S. mansoni adult worms, 5 µM, relative to Worm + RPMI control, read-out: % viability
  viability at 5 µM: 97.5%
S. mansoni adult worms [2]; Schistosoma mansoni, S. mansoni adult worms, 15 µM, relative to Worm + RPMI control, read-out: % viability
  viability at 15 µM: 93.7%
S. mansoni adult worms [2]; Schistosoma mansoni, S. mansoni adult worms, 30 µM, relative to Worm + RPMI control, read-out: % viability
  viability at 30 µM: 89.4%
S. mansoni adult worms [2]; Schistosoma mansoni, S. mansoni adult worms, 50 µM, relative to Worm + RPMI control, read-out: % viability
  viability at 50 µM: 88.5%

## CCc1ccccc1-c1nc(CN[C@@H]2C[C@@H]3C[C@H]([C@H]2C)C3(C)C)c(C)o1 [Compound 2]
S. mansoni adult worms [1]; 1 hr, first data set (r117-133), baseline 55.82
  Ratio GSH/GSSG: 34.19
S. mansoni adult worms [1]; 1 hr, first data set (r117-133), baseline = 100
  % Ratio GSH/GSSG: 61.2531%
S. mansoni adult worms [1]; 3 hr, first data set (r117-133), baseline 55.82
  Ratio GSH/GSSG: 28.99
S. mansoni adult worms [1]; 3 hr, first data set (r117-133), baseline = 100
  % Ratio GSH/GSSG: 51.9337%
S. mansoni adult worms [1]
  Decrease (%) in GSH/GSSG ratio: 39%
Human GR; 66.7 µM
  Human GR (inhibition at 66.7 µM): n.i.
Human GR; [6]
  inhibition at 15 µM: -0.995%
Human GR; [7]
  inhibition at 30 µM: -1.9%
Human GR; [8]
  inhibition at 66.7 µM: -0.827%
Human GR; [9]
  inhibition at 15 µM: -5.17%
Human GR; [10]
  inhibition at 30 µM: -3.97%
Human GR; [11]
  inhibition at 66.7 µM: -3.29%
S. mansoni adult worms [2]; compound alone
  LD50 ex vivo S. mansoni adult: 12.5 ± 0.40 µM
S. mansoni adult worms [2]; Schistosoma mansoni, S. mansoni adult worms, Conc. 5 µM, read-out: % viability
  viability at 5 µM: 86.9%
S. mansoni adult worms [2]; [12]
  viability at 10 µM: 59.5%
S. mansoni adult worms [2]; Schistosoma mansoni, S. mansoni adult worms, Conc. 25 µM, read-out: % viability
  viability at 25 µM: 0.114%
S. mansoni adult worms [2]; Schistosoma mansoni, S. mansoni adult worms, Conc. 35 µM
  viability at 35 µM: 0.0801%
